This is an account of results in the METLIN SMRT retention time set (Domingo-Almenara et al. 2019).

The nature of the data set: gradient 5% acetonitrile 3 min, to 50% in 2 min, to 85% in 15 min, held 3 min, 100 µL/min. Particulars: column: Zorbax Extend-C18 2.1 x 50 mm; eluents: water / acetonitrile, 0.1% formic acid. The essentials:
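Each retention time is based on an adduct peak selected computationally and verified by manual inspection. Measurements used HPLC–quadrupole time-of-flight mass spectrometry in positive and negative ionization mode on mixtures of ~100 pure standards. Chromatography ran on a Zorbax Extend-C18 column (2.1 × 50 mm, 1.8 μm) at 100 μL/min with water and acetonitrile, each containing 0.1% formic acid, and dead and dwell volumes of 40 μL and 900 μL.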
`Cn1c(=O)n(C)c2cc(S(=O)(=O)C3CCCCC3)c(NC(=O)C3CC3)cc21` yielded an RP-LC retention time of 814 s. To `Cc1cccc(N2CCN(S(=O)(=O)c3ccc(-c4nnc(C5CCC5)o4)o3)CC2)c1` belongs 1140 s; to `CCOC(=O)C1CCN(c2ncccc2-c2nnc(-c3ccccc3)o2)CC1`, 1010 s; to `O=C(Nc1ccc2ccccc2c1)N1CCN(c2ncc(C(F)(F)F)cc2Cl)CC1`, 1110 s. For the molecule `CCCCOc1ccc(C(=O)N2CCCC2c2nc(-c3ccc(OC)c(OC)c3)no2)cc1` (stereo not given), the RP-LC retention time was found to be 1110 s. To `O=C(NCc1ccco1)c1ccc(NC(=O)C2CC2)cc1N1CCCCCC1` belongs 584 s.

`O=C(Nc1cccc(C(F)(F)F)c1)C1CCN(C(=O)C2Sc3ccccc3NC2=O)CC1` (stereo not given) registered an RP-LC retention time of 862 s. Next, `O=C(Cc1cc(-c2ccccc2)on1)NCCN1CCOCC1`: 566 s; `O=C(Nc1ccc(N2CCN(C3CCCC3)C2=O)nc1)c1ccc(F)c(F)c1`: 916 s. Next, `Cc1ccc(-c2nccn3cc(C(=O)N4CCN(C5CCCCC5)CC4)nc23)cc1`: 682 s. Regarding `Cc1cc(N2CCN(C(=O)c3cccc(C(F)(F)F)c3)CC2)nc2nncn12`, the RP-LC retention time came out at 627 s. To `COc1ccc(NS(=O)(=O)c2cc3c(s2)CCN(C(=O)C2CC2)C3)cc1F` belongs 762 s. To `Fc1cc(CN2CCC(Cc3nnc(C4CCOCC4)o3)C2)ccc1Cl` (stereo not given) belongs 603 s. Next, `CCCN1C(=O)CCc2cc(NS(=O)(=O)c3ccc(C(F)(F)F)cc3)ccc21`: 914 s; `Cc1nc(N2CCOCC2)c2c(C(=O)Nc3cccc(F)c3)c(C)oc2n1`: 817 s. `Cc1cccc(-n2c(=O)c3sccc3n(Cc3nc(-c4ccc(F)c(Cl)c4)no3)c2=O)c1` displayed an RP-LC retention time of 1100 s. Turning to `N#Cc1ccc(NC(=O)Cn2cccc(-c3nc(-c4ccc(Cl)cc4)no3)c2=O)cc1`, the RP-LC retention time was 933 s. Next, `CSc1ccc(CNC(=O)CCNc2cnc3cnccn23)cc1`: 588 s; `COc1ccc(-c2c(C)noc2NC(C)=O)cc1S(=O)(=O)Nc1ccc(Cl)cc1`: 766 s.

For the molecule `CN(C)c1ccc2c(c1)CN(Cc1ccccc1C#N)CCO2`, the RP-LC retention time worked out at 592 s. Next, `CS(=O)(=O)Nc1ccc(C2(C(=O)N3CCN(c4ccccc4)CC3)CCCCC2)cc1`: 674 s; `O=C(c1ccc(C(F)(F)F)cc1)N1CCN(c2nnc3ccccn23)CC1`: 698 s; `O=C(Nc1cnn(-c2ncc(N3CCCCC3)cn2)c1)c1ccccn1`: 814 s.

Molecule `CC1=C(c2ccc(Cl)cc2)S(=O)(=O)N=C1N1CCCN(C(=O)C(C)C)CC1` gave an RP-LC retention time of 822 s. Next, `COc1ccc(CCN2C(=O)C(NC(C)=O)(C(F)(F)F)C3=C2CC(C)(C)CC3=O)cc1OC` (stereo not given): 760 s. Next, `Cc1ccc(NC(=O)N2CCC(n3cnc4ccc(Cl)cc4c3=O)CC2)cc1C`: 913 s. To `CCN1C(=O)C(C)(C(=O)NCc2cccc(C)c2)Oc2cccnc21` (stereo not given) belongs 744 s; to `O=c1[nH]c2ccc(NCc3cccc(Cl)c3Cl)cc2[nH]1`, 728 s. In the case of `Cc1ccc2c(c1)N(C(=O)Cn1cnc3nc4c(cc3c1=O)CCCC4)CCO2`, the RP-LC retention time was found to be 782 s. To `COc1ccc(OC)c(CCNC(=O)c2c(N3CCCC3=O)c3cc(F)ccc3n2C)c1` belongs 919 s. Molecule `CC(C)(C)c1ccc(-c2noc(-c3nn(-c4cccc(F)c4)ccc3=O)n2)cc1` showed an RP-LC retention time of 1140 s. The molecule `Cc1nn(-c2ccc(C(=O)NCc3cc(F)cc(F)c3)cn2)c(C)c1C` yielded an RP-LC retention time of 918 s. To `COc1ccc(C(=O)NC2CCN(c3cc(-c4cccs4)[nH]n3)C2)cc1F` (stereo not given) belongs 720 s; to `O=C(NCc1ccc(F)cc1)N1CC(n2ccnc2)C1`, 577 s; to `COc1cc(CNc2nnc(-c3nnc(C4CC4)o3)c3ccccc23)cc(OC)c1`, 878 s. In the case of `CC(C)Cn1c(CC2CCN(C(=O)COc3ccccc3)C2)nc2cccnc21` (stereo not given), the RP-LC retention time turned out to be 672 s.

`O=C1COc2cc(Cl)ccc2N1Cc1nc(-c2ccc(OC(F)(F)F)cc2)no1` gave an RP-LC retention time of 1220 s. To `CCCn1nnc(NCc2ccc(-c3ccc(Cl)cc3Cl)o2)n1` belongs 1200 s; to `COc1cccc(CN2CCc3nn(Cc4ccccc4)c(=O)n3CC2)n1`, 580 s; to `CCC(C)NC(=O)N1CC(n2cc(C(=O)N(C)CCOC)nn2)C1` (stereo not given), 620 s. Next, `Cc1ccc(C)c(CN2C[C@@H]3C(=O)N(C)C(=O)[C@@H]3C2)c1`: 611 s; `Cc1ccc2ncn(C3CCN(C(=O)Nc4ccccc4C)CC3)c(=O)c2c1`: 754 s; `CCN(CC)CCCC(C)Nc1nc(C)nc2cc(Cl)ccc12` (stereo not given): 769 s. Turning to `Brc1ccc(-c2nc(NCCC3=CCCCC3)c3ccccc3n2)cc1`, the RP-LC retention time came out at 1010 s. Next, `Cc1noc([C@@H]2CC(F)(F)CN2S(=O)(=O)c2ccccc2C)n1`: 909 s; `Cc1cccc(C(=O)Nc2nc(-c3ccc4c(c3)NC(=O)CO4)c(C)s2)c1`: 918 s. To `CCOCCCNC(=O)CCCn1c2ccccc2c2cnn(C)c(=O)c21` belongs 728 s; to `Clc1ccc(-c2noc(Cc3nnc(-c4ccccc4)o3)n2)cc1`, 1050 s; to `CC(C)c1ccc(-c2nc(C3CC(=O)N(c4ccc(Cl)cc4)C3)no2)cc1` (stereo not given), 1300 s. To `O=C(NCCCc1ccccc1)C1CCCN(c2ccc(=O)n(-c3cccc(Cl)c3)n2)C1` (stereo not given) belongs 926 s; to `COc1ccc(C)c2sc(NC(=O)c3cc(C)no3)nc12`, 800 s. Take `Cc1ccc(N2CCCS2(=O)=O)cc1NC(=O)C1CCCC1`: the RP-LC retention time came out at 696 s. To `c1ccc(-n2ncc3cccnc32)cc1` belongs 624 s; to `COCC1CN(C(=O)c2ccc3cc[nH]c3c2)CC12CCOCC2` (stereo not given), 680 s.

As for `Cc1ccnc(NC(=O)NCCCSc2nnc(-c3ccccc3)o2)n1`, the RP-LC retention time was 727 s.

As to `O=C(Cn1nc(-c2nc(-c3ccc(Cl)cc3)no2)ccc1=O)N1CCCC1`, the RP-LC retention time stood at 848 s. To `CCN1C(=O)c2cc(S(=O)(=O)Nc3ccc(F)cc3)ccc2Oc2cccnc21` belongs 957 s; to `CCCNC(=O)N1CCCC(c2nn[nH]n2)C1` (stereo not given), 590 s; to `CCOCCCNC(=O)C1CCCN(c2ncc(-c3cccc(F)c3)cn2)C1` (stereo not given), 902 s. To `O=C(Nc1ccccc1)c1nnc(CSCC(=O)N2CCN(c3ccccn3)CC2)s1` belongs 631 s.
